Data published in ChEMBL document CHEMBL1208782, “Synthesis and pharmacological validation of a novel series of non-steroidal FXR agonists” (Bioorg Med Chem Lett, 2010).

Experiments:
Format in all cases: functional, cell-based
[1] = target: T1, Mineralocorticoid receptor (Homo sapiens, UniProt P08235); assay: Agonist activity at mineralocorticoid receptor-LBD expressed in HEK293 cells assessed as Gal4-DBD interaction by cellular mammalian one hybrid assay
T1 sequence (P08235 whole entry): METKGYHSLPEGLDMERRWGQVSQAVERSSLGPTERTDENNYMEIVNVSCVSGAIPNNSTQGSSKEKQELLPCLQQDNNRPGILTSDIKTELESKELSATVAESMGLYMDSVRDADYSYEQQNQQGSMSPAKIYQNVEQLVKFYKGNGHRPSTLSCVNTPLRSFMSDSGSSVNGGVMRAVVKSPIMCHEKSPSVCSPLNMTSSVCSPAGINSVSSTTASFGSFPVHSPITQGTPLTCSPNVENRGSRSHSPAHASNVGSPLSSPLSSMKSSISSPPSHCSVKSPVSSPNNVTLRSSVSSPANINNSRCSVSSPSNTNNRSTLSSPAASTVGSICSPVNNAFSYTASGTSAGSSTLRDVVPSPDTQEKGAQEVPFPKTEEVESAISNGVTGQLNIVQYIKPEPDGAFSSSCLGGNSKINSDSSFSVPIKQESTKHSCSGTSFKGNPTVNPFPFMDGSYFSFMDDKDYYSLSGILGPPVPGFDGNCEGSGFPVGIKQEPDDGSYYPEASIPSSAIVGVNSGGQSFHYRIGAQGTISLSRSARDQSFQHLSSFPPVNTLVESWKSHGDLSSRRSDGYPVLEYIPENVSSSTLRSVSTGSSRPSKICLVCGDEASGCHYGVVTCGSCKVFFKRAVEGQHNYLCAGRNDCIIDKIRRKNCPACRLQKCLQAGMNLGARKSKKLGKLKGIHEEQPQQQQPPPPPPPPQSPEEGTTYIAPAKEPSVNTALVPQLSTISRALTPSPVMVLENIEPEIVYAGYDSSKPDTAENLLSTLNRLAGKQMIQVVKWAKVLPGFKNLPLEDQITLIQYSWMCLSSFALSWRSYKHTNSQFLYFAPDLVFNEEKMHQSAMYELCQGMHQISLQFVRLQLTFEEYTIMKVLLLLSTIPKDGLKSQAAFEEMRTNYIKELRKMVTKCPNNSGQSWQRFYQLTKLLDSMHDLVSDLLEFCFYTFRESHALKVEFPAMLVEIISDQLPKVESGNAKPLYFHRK

[2] = target: T2, Peroxisome proliferator-activated receptor delta (Homo sapiens, UniProt Q03181); assay: Agonist activity at PPAR-beta/delta-LBD expressed in HEK293 cells assessed as Gal4-DBD interaction by cellular mammalian one hybrid assay
T2 sequence (Q03181 whole entry): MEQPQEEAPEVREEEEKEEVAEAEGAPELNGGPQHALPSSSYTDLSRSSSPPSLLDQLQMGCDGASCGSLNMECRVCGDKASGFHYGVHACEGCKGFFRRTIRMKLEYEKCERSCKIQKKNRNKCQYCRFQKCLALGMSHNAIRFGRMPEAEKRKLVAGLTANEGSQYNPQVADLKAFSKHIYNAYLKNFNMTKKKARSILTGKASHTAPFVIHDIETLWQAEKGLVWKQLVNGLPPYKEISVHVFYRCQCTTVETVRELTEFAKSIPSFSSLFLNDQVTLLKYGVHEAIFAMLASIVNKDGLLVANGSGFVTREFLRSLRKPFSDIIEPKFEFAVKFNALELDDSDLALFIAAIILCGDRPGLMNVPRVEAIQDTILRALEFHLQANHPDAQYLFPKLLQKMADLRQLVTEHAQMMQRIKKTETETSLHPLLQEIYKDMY

[3] = target: T3, Bile acid receptor (Homo sapiens) (UniProt Q96RI1); assay: Agonist activity at human […] FXR LBD expressed in HEK293 cells coexpressing GAL4-DNA bindig domain and pFRluc by mammalian one-hybrid assay relative to GW-4064
T3 sequence (whole entry): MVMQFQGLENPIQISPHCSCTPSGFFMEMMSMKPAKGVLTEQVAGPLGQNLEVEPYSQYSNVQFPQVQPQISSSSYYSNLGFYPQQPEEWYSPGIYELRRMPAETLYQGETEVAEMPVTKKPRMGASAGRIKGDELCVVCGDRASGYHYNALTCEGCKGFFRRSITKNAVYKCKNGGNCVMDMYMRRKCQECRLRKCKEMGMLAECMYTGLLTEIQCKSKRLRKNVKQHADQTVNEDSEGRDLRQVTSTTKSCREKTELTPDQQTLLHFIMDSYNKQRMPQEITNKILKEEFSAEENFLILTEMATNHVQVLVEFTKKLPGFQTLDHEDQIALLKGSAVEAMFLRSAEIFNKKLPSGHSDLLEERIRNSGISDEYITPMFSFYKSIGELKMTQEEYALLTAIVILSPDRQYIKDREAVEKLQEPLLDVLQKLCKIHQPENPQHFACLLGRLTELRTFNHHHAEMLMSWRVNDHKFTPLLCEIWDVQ

[4] = target: T4, Thyroid hormone receptor alpha (Homo sapiens, UniProt P10827); assay: Agonist activity at TRalpha-LBD expressed in HEK293 cells assessed as Gal4-DBD interaction by cellular mammalian one hybrid assay
T4 sequence (P10827 whole entry): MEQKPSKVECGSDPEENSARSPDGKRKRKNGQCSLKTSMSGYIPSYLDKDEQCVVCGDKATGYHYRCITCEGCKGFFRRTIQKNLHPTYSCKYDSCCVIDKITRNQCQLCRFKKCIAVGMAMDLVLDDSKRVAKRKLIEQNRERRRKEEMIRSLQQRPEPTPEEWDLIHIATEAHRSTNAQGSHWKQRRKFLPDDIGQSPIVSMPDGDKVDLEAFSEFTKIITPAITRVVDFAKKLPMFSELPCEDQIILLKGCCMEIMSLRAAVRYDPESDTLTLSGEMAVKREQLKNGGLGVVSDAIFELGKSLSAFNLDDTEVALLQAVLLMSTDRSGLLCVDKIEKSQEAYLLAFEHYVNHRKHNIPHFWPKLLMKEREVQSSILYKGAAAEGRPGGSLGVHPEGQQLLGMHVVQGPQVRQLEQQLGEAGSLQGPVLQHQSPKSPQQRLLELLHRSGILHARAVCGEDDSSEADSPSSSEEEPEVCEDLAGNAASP

[5] = target: T5, Vitamin D3 receptor (Homo sapiens, UniProt P11473); assay: Agonist activity at VDR-LBD expressed in HEK293 cells assessed as Gal4-DBD interaction by cellular mammalian one hybrid assay
T5 sequence (P11473 whole entry): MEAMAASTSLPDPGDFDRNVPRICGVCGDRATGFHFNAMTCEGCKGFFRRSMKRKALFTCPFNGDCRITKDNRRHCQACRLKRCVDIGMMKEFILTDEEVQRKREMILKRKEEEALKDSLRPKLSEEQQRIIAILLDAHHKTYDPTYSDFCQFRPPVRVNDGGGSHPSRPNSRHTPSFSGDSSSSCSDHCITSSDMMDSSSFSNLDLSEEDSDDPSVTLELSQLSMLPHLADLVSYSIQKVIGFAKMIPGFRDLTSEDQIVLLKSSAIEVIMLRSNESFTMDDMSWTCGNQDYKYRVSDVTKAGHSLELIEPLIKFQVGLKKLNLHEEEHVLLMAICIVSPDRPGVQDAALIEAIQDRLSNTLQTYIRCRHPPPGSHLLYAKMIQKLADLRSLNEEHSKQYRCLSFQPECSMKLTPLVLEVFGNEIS

| SMILES | EC50 [1] [µM] | EC50 [2] [µM] | Efficacy [3] [%] | EC50 [4] [µM] | EC50 [5] [µM] |
| --- | --- | --- | --- | --- | --- |
| CN(Cc1cccc(C(=O)O)c1)c1ccc(OCc2c(-c3c(Cl)cccc3Cl)noc2C2CC2)nc1C(F)(F)F | > 10 | > 10 | 79 | > 10 | > 10 |
| CN(Cc1ccc(C(=O)O)cc1)c1ccc(OCc2c(-c3c(Cl)cccc3Cl)noc2C2CC2)nc1C(F)(F)F | > 10 | > 10 | 81 | > 10 | > 10 |
| CC(C)c1onc(-c2c(Cl)cccc2Cl)c1COc1ccc(N(C)Cc2ccc(C(=O)O)cc2)c(C(F)(F)F)n1 | > 10 | > 10 | 75 | > 10 | > 10 |
